Experimental data taken from PMC5539068, “Structural optimization and evaluation of novel 2-pyrrolidone-fused (2-oxoindolin-3-ylidene)methylpyrrole derivatives as potential VEGFR-2/PDGFRβ inhibitors” (Chemistry Central Journal, 2017).
Entries after “also recorded” stand apart in the source; their conditions may differ. Like-named read-outs stand apart in the source and are kept apart here.

What was measured:
[1] = tested on: 786-O cells; assay: Cell proliferation assay (MTT), 786-O; settings: for IC50: Homo sapiens, 786-0, 72 h, read-out: IC50 786-O; for selective index (SI) 786-O: versus Detroit 551
Experimental: (§2) Serial dilutions of indicated compounds were added and incubated for additional 72 h. At the end of the incubation, cell viability was determined by the 3-(4,5-dimethylthiazol-2-yl)-2,5-diphenyl tetrazolium bromide (MTT) assay. The MTT formazan crystals formed were dissolved in DMSO, and the absorbance at 570 nm was recorded using a microplate spectrophotometer (Thermo Fisher Scientific, Waltham, MA, USA) [46].

[2] = tested on: NCI-H460 cells; assay: Cell proliferation assay (MTT), NCI-H460; settings: for IC50: Homo sapiens, NCI-H460, 72 h, read-out: IC50 NCI-H460; for selective index (SI) NCI-H460: versus Detroit 551
Experimental: as §2

[3] = target: PDGFRβ (Homo sapiens, UniProt P09619); assay: In-vitro kinase assay (HotSpot, 33P), PDGFRβ
PDGFRβ, sequence (P09619 33-1106): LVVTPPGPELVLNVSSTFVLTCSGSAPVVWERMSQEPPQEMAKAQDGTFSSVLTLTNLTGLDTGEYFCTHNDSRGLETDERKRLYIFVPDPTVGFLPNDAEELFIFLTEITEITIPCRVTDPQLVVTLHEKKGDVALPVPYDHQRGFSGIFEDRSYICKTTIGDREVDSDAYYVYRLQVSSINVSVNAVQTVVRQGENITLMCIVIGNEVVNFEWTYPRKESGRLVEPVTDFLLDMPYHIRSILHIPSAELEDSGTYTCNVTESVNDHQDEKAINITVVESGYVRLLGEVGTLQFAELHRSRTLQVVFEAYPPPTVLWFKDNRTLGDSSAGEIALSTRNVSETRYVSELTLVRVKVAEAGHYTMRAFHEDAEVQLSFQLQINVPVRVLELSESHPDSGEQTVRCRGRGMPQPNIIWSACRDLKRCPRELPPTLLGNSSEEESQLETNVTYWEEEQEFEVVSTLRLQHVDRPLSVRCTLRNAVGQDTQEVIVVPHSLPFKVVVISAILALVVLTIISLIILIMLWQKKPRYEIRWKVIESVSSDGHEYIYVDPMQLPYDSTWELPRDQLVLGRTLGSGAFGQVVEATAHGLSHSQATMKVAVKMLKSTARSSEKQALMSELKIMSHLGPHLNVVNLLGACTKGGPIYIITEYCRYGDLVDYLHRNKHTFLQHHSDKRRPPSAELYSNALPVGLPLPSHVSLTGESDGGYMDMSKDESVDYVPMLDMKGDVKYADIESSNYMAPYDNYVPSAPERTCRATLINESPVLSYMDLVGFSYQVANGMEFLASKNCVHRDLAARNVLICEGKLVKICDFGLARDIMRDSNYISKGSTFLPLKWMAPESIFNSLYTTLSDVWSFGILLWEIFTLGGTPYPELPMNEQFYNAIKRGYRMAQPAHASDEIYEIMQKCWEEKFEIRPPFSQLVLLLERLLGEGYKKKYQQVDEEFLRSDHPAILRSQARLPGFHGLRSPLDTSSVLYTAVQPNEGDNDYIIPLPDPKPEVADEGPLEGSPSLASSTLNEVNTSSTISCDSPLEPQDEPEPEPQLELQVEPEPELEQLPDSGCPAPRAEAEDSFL

[4] = target: VEGFR-2 (Homo sapiens, UniProt P35968); assay: In-vitro kinase assay (HotSpot, 33P), VEGFR-2; settings: for inhibition at 0.08 µM: read-out: % inhibition of VEGFR-2 at 80 nM; for % inhibition of VEGFR-2 at 80 nM: 80 nM compound, ATP 10.0 μM
VEGFR-2, sequence (P35968 20-1356): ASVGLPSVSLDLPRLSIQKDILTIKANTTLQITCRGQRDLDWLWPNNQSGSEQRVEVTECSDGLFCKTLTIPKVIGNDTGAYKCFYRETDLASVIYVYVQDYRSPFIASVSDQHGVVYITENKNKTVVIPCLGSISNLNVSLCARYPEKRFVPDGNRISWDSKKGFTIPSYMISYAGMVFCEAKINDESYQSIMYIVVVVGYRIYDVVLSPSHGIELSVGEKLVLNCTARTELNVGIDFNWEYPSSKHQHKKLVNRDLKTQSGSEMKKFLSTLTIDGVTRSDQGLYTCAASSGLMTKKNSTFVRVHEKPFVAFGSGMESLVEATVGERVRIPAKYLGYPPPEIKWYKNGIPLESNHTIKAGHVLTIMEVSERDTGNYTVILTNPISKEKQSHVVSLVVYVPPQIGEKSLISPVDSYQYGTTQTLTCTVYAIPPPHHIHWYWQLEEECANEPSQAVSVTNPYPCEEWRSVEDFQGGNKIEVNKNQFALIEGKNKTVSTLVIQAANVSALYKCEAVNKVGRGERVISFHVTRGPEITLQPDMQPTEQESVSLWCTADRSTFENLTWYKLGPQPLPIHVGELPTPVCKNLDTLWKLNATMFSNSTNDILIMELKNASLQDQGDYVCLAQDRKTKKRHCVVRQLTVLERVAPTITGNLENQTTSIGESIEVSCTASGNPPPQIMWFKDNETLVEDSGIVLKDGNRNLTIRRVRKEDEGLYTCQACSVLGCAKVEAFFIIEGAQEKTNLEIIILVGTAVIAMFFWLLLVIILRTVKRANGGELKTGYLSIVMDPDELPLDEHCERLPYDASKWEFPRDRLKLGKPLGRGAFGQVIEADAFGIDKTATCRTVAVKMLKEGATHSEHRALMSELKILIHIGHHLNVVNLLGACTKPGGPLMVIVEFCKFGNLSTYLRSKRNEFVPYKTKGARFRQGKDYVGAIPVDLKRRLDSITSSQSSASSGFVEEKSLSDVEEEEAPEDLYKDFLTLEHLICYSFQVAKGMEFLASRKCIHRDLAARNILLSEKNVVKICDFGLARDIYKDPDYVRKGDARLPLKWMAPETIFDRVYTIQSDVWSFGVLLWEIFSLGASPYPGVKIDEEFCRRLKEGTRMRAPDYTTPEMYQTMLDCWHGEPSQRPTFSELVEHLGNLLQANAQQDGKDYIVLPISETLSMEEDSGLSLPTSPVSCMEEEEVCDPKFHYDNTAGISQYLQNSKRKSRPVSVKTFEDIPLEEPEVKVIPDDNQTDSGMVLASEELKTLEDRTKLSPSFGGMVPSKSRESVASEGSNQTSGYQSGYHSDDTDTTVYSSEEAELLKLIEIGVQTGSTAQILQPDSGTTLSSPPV
Experimental: Next, the VEGFR-2 phosphorylation inhibitory activities of the newly synthesized compounds were evaluated.
(§3) Briefly, specific kinase and substrate and required cofactors were prepared in reaction buffer. Test compounds were added to the reaction and after 20 min a mixture of ATP (Sigma, St. Louis MO, USA) and ^33P ATP (Perkin Elmer, Waltham MA, USA) was added to make a final concentration of 10.0 μM. Reactions were stood at room temperature for 120 min, and then the reactions were spotted onto a P81 ion exchange filter paper (Whatman Inc., Piscataway, NJ, USA). Unbound phosphate was removed by extensive washing of filters in 0.1% phosphoric acid. Kinase activity data was reported as the percent remaining kinase activity in test compounds compared to the solvent control dimethyl sulfoxide (DMSO).

[5] = target: T1, Aurora A (Homo sapiens, UniProt O14965); assay: In-vitro kinase assay (HotSpot, 33P), Aurora A; settings: ATP 10.0 μM; for % inhibition of Aurora A at 1.0 μM: 1.0 μM compound; for inhibition at 1 µM: read-out: % inhibition of Aurora A at 1.0 μM, 1.0 μM compound
T1 sequence (O14965 1-403): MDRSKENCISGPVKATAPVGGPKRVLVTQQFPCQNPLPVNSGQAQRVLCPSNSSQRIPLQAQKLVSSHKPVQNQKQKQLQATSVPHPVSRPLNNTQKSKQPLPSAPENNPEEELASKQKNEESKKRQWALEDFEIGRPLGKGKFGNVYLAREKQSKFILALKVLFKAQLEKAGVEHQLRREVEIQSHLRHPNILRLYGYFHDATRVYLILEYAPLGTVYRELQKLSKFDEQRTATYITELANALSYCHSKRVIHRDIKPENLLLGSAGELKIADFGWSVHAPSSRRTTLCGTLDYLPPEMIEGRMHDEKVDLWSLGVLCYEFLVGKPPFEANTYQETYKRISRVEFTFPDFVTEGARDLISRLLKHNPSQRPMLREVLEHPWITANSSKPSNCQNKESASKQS
Experimental: as §3

[6] = tested on: HUVEC cells; assay: In-vitro VEGF-induced Matrigel tube formation assay; assay type: cell-based, human; settings: for IC50: Homo sapiens, HUVEC, VEGF 10 ng/ml, Matrigel, 6 h, read-out: IC50 Area (in vitro tube formation); for potency in inhibiting in vitro tube formation relative to sunitinib in terms of IC50: versus sunitinib
Experimental: The in vitro tube formation assay was assessed using ibidi μ-Slides (15-well, ibidi GmbH, Martinsried, Germany) in accordance with manufacturer’s protocol. Briefly, growth factor reduced Matrigel (10 μl) (Sigma, St. Louis MO) was added to the inner well of ibidi μ-Slides, and incubated at 37 °C for 1 h. […] 10,000 HUVEC cells in 50 μl of above growth medium was added to Matrigel (Sigma, St. Louis MO, USA) coated ibidi μ-Slides. After 6 h of incubation at 37 °C, the supernatant was discarded, and 50 μl of serum-free medium with diluted calcein AM (6.25 μg/ml) was added to above ibidi μ-Slides. After incubation in the dark at room temperature for 30 min, the μ-Slides were washed with PBS (50 μl) and fluorescence pictures were taken at 485 nm with a Leica DM1000 LED microscope (Leica Microsystems, Wetzlar, Hessen, Germany).

[7] = tested on: HCT116 cells; assay: Cell proliferation assay (MTT), HCT116; settings: for IC50: Homo sapiens, HCT-116, 72 h, read-out: IC50 HCT116; for selective index (SI) HCT116: versus Detroit 551
Experimental: as §2

[8] = tested on: Detroit 551 cells; assay: Cell proliferation assay (MTT), normal fibroblast Detroit 551; settings: Homo sapiens, Detroit 551, 72 h, read-out: IC50 Detroit 551
Experimental: as §2

[9] = tested on: HCT116 cells; assay: Cell cycle analysis by image cytometry (DAPI); settings: 24 h, preliminary
Experimental: Cell cycle profiles of HCT116 cells were determined with an NC-3000 image cytometer (ChemoMetec, Allerod, Denmark) in accordance with manufacturer’s protocol. Briefly, cells were seeded at 200,000 cells/well on a 6-well plate for 24 h. […] After incubation for 24 h, 100,000 cells were harvested and centrifuged at 400 g at room temperature for 5 min, washed once with PBS (50 μM), and resuspended in lysis buffer (50 μl) (ChemoMetec, Allerod, Denmark) containing 10 μg/ml of 2-(4-amidinophenyl)-1H-indole-6-carboxamidine (DAPI, ChemoMetec, Allerod, Denmark). […] The cellular fluorescence was measured with an NC-3000 image cytometer using NC-SlideA8 (ChemoMetec, Allerod, Denmark). The NC-3000 software (ChemoMetec, Allerod, Denmark) was used for image acquisition, image analysis and quantification, and data visualization.

[10] = tested on: HCT116 cells
Experimental: (§1) Cells were seeded at 5000 cells/well on a 96-well plate for 24 h. The indicated compounds in different concentrations (100 μl) were added to cells. After 6 h, old medium was aspirated, and the cells were washed three times with PBS. WST-8 (Dojindo, Rockville, MD, USA) (10 µl) was added to each well, and the absorbance of the plate was recorded at 450 nm on a microplate spectrophotometer (Thermo Fisher Scientific, Waltham, MA, USA).

[11] = tested on: Detroit 551 cells
Experimental: as §1

Compound | melting point [°C] | IC50 [1] [µM] | IC50 [2] [µM] | selective index (SI) NCI-H460 [2] | inhibition at 0.08 µM [4] [%] | IC50 [7] [µM] | selective index (SI) HCT116 [7] | IC50 [8] [µM] | % inhibition of VEGFR-2 at 80 nM [4] | also measured
CCN(CC)CCN1Cc2[nH]c(/C=C3\C(=O)Nc4ccc(OC)cc43)c(C)c2C1=O [Compound 13, (Z)-3-((5-(2-(diethylamino)ethyl)-3-methyl-4-oxo-1,4,5,6-tetrahydropyrrolo[3,4-b]pyrrol-2-yl)methylene)-5-methoxyindolin-2-one] | 214 to 216 | 7.86 ± 0.3 | 6.37 ± 1.09 | >1.57 | 41 | 3.06 ± 0.67 | >3.27 | > 10 |  | selective index (SI) 786-O [1]: >1.27; IC50 [3]: 0.0762 µM; IC50 [4]: 0.0478 µM; % inhibition of Aurora A at 1.0 μM [5]: 92.9%; inhibition at 1 µM [5]: 94.4%; IC50 [6]: 0.74 ± 0.16 µM; potency in inhibiting in vitro tube formation relative to sunitinib in terms of IC50 [6]: twofold higher; cell cycle profile effect ([9]; 3.0 μM): increase in polyploid cells
CCN(CC)CCN1Cc2[nH]c(/C=C3\C(=O)Nc4ccc(S(=O)(=O)N(C)C)cc43)c(C)c2C1=O [Compound 5, (Z)-3-((5-(2-(diethylamino)ethyl)-3-methyl-4-oxo-1,4,5,6-tetrahydropyrrolo[3,4-b]pyrrol-2-yl)methylene)-N,N-dimethyl-2-oxoindoline-5-sulfonamide] | 244 to 247 | > 10 | > 10 |  | 20 | 8.98 ± 0.92 | >1.11 | > 10 |  | 
CCN(CC)CCN1Cc2[nH]c(/C=C3\C(=O)Nc4ccc(NS(C)(=O)=O)cc43)c(C)c2C1=O [Compound 10, (Z)-N-(3-((5-(2-(Diethylamino)ethyl)-3-methyl-4-oxo-1,4,5,6-tetrahydropyrrolo[3,4-b]pyrrol-2-yl)methylene)-2-oxoindolin-5-yl)methanesulfonamide] | 245 to 247 | > 10 | > 10 |  | 4 | > 10 |  | > 10 |  | 
CCN(CC)CCN1Cc2[nH]c(/C=C3\C(=O)Nc4ccc(S(N)(=O)=O)cc43)c(C)c2C1=O [Compound 4, (Z)-3-((5-(2-(diethylamino)ethyl)-3-methyl-4-oxo-1,4,5,6-tetrahydropyrrolo[3,4-b]pyrrol-2-yl)methylene)-2-oxoindoline-5-sulfonamide] | 252 to 255 | > 10 | > 10 |  | 0 | > 10 |  | > 10 | did not differ from that of the 1% DMSO (control) | 
CCN(CC)CCN1Cc2[nH]c(/C=C3\C(=O)Nc4ccc(C(F)(F)F)cc43)c(C)c2C1=O [Compound 11, (Z)-3-((5-(2-(Diethylamino)ethyl)-3-methyl-4-oxo-1,4,5,6-tetrahydropyrrolo[3,4-b]pyrrol-2-yl)methylene)-5-(trifluoromethyl)indolin-2-one] | 212 to 215 | 8.49 ± 0.46 | 7.22 ± 1.01 | >1.39 | 0 | > 10 |  | > 10 | did not differ from that of the 1% DMSO (control); also recorded: no inhibitory activity | selective index (SI) 786-O [1]: >1.18
CCN(CC)CCN1Cc2[nH]c(/C=C3\C(=O)Nc4ccc(S(=O)(=O)Nc5ccccc5)cc43)c(C)c2C1=O [Compound 8, (Z)-3-((5-(2-(Diethylamino)ethyl)-3-methyl-4-oxo-1,4,5,6-tetrahydropyrrolo[3,4-b]pyrrol-2-yl)methylene)-2-oxo-N-phenylindoline-5-sulfonamide] | 225 to 228 | > 10 | > 10 |  | 15 | > 10 |  | > 10 | did not differ from that of the 1% DMSO (control) | 
CCN(CC)CCN1Cc2[nH]c(/C=C3\C(=O)Nc4ccc(S(=O)(=O)N(CC)CC)cc43)c(C)c2C1=O [Compound 6, (Z)-3-((5-(2-(diethylamino)ethyl)-3-methyl-4-oxo-1,4,5,6-tetrahydropyrrolo[3,4-b]pyrrol-2-yl)methylene)-N,N-diethyl-2-oxoindoline-5-sulfonamide] | 245 to 247 | > 10 | > 10 |  | 0 | 4.2 ± 0.57 | >2.38 | > 10 |  | 
CCN(CC)CCN1Cc2[nH]c(/C=C3\C(=O)Nc4ccc(S(=O)(=O)N(CCCl)CCCl)cc43)c(C)c2C1=O [Compound 7, (Z)-N,N-Bis(2-chloroethyl)-3-((5-(2-(diethylamino)ethyl)-3-methyl-4-oxo-1,4,5,6-tetrahydropyrrolo[3,4-b]pyrrol-2-yl)methylene)-2-oxoindoline-5-sulfonamide] |  | > 10 | > 10 | <0.61 | 46 | 3.65 ± 0.19 | 1.66 | 6.06 ± 0.4 |  | acute cytotoxicity, HCT116 ([10]; 10 μM, 6 h, WST-8): neither our compounds nor sunitinib had acute cytotoxicity; acute cytotoxicity, Detroit 551 ([11]; 10 μM, 6 h, WST-8): neither our compounds nor sunitinib had acute cytotoxicity; selective index (SI) 786-O [1]: <0.61; IC50 [3]: 0.0632 µM; IC50 [4]: 0.0237 µM; % inhibition of Aurora A at 1.0 μM [5]: 94.4%; inhibition at 1 µM [5]: 92.9%; IC50 [6]: 0.76 ± 0.11 µM; potency in inhibiting in vitro tube formation relative to sunitinib in terms of IC50 [6]: twofold higher; cell cycle profile effect ([9]; 5.0 μM): increase in polyploid cells
CCN(CC)CCN1Cc2[nH]c(/C=C3\C(=O)Nc4ccc(S(=O)(=O)Nc5ccc(C(F)(F)F)cc5)cc43)c(C)c2C1=O [Compound 9, (Z)-3-((5-(2-(Diethylamino)ethyl)-3-methyl-4-oxo-1,4,5,6-tetrahydropyrrolo[3,4-b]pyrrol-2-yl)methylene)-2-oxo-N-(4-(trifluoromethyl)phenyl)indoline-5-sulfonamide] | 231 to 234 | > 10 | > 10 |  | 0 | > 10 |  | > 10 | did not differ from that of the 1% DMSO (control) | 
CCN(CC)CCN1Cc2[nH]c(/C=C3\C(=O)Nc4ccc([N+](=O)[O-])cc43)c(C)c2C1=O [Compound 12, (Z)-3-((5-(2-(diethylamino)ethyl)-3-methyl-4-oxo-1,4,5,6-tetrahydropyrrolo[3,4-b]pyrrol-2-yl)methylene)-5-nitroindolin-2-one] | 229 to 230 | > 10 | 6.61 ± 0.8 | >1.51 | 13 | > 10 |  | > 10 |  | 
CCN(CC)CCNC(=O)c1c(C)[nH]c(/C=C2\C(=O)Nc3ccc(F)cc32)c1C [Sunitinib, sunitinib, reference compound] |  | 7.89 ± 0.6 | 7.51 ± 0.78 |  |  | 4.6 ± 0.23 |  | 9.48 ± 0.18 |  | acute cytotoxicity, HCT116 [10]: neither our compounds nor sunitinib had acute cytotoxicity; acute cytotoxicity, Detroit 551 [11]: neither our compounds nor sunitinib had acute cytotoxicity; inhibition at 1 µM [5]: 50.7%; IC50 [6]: 1.54 ± 0.08 µM; cell cycle profile effect ([9]; 5.0 μM): G0/G1 cell cycle arrest
